PMC3904261 (British Journal of Pharmacology, 2013)
Bridge positions count the residues as written; N and C are the ends. Ends that are not written are not given here.

B1: [Ser^6]-CGRP (peptide)
chain: ACDTASCVTHRLAGLLSRSGGVVKNNFVPTNVGSKAF-NH2
modifications: disulfide 2-7
B2: [Cys^3]-CGRP (peptide)
chain: ACCTATCVTHRLAGLLSRSGGVVKNNFVPTNVGSKAF-NH2
modifications: disulfide 2-7; N-terminus assumed
SMILES: CC(C)C[C@H](NC(=O)CNC(=O)[C@H](C)NC(=O)[C@H](CC(C)C)NC(=O)[C@H](CCCNC(=N)N)NC(=O)[C@H](Cc1c[nH]cn1)NC(=O)[C@@H](NC(=O)[C@@H](NC(=O)[C@@H]1CSSC[C@H](NC(=O)[C@H](C)N)C(=O)N[C@@H](CS)C(=O)N[C@@H]([C@@H](C)O)C(=O)N[C@@H](C)C(=O)N[C@@H]([C@@H](C)O)C(=O)N1)C(C)C)[C@@H](C)O)C(=O)N[C@@H](CC(C)C)C(=O)N[C@@H](CO)C(=O)N[C@@H](CCCNC(=N)N)C(=O)N[C@@H](CO)C(=O)NCC(=O)NCC(=O)N[C@H](C(=O)N[C@H](C(=O)N[C@@H](CCCCN)C(=O)N[C@@H](CC(N)=O)C(=O)N[C@@H](CC(N)=O)C(=O)N[C@@H](Cc1ccccc1)C(=O)N[C@H](C(=O)N1CCC[C@H]1C(=O)N[C@H](C(=O)N[C@@H](CC(N)=O)C(=O)N[C@H](C(=O)NCC(=O)N[C@@H](CO)C(=O)N[C@@H](CCCCN)C(=O)N[C@@H](C)C(=O)N[C@@H](Cc1ccccc1)C(N)=O)C(C)C)[C@@H](C)O)C(C)C)C(C)C)C(C)C

Key:
[1] = molecular target: T1, AMY1(a) receptor (Homo sapiens, UniProt O60894+P30988); experiment: cAMP production in Cos 7 cells via the AMY1(a) receptor; format: cell-based; details: AlphaScreen, means ± SEM, n = 3–6
T1 construct: HA; expressed in transfected cells; host or cells: Cos 7
T1 sequence (P30988 25-474): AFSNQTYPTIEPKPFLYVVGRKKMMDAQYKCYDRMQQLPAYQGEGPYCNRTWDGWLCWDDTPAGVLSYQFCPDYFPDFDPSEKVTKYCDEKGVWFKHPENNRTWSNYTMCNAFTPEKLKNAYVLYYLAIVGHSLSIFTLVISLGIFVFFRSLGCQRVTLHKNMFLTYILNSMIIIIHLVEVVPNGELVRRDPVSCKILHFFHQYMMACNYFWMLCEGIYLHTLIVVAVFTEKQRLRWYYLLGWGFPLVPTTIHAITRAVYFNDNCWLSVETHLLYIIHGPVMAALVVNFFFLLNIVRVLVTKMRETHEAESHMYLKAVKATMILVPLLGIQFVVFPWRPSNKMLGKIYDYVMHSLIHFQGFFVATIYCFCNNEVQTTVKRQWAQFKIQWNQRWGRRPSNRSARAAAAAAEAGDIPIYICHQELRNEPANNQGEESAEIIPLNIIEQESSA
T1 sequence (O60894 27-148): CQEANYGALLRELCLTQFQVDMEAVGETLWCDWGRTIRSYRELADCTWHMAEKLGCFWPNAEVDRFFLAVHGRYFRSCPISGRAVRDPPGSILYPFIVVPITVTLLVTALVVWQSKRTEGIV
Procedure: SK-N-MC cells were grown in DMEM/F12 medium supplemented with 10% fetal calf serum as described previously (Poyner et al., [1998]). […] Production of cAMP in SK-N-MC cells for all analogues except [[…]]-hαCGRP was by a radioreceptor assay, as described previously (Poyner et al., [1998]). […] For [[…]]-hαCGRP, a different clone of SK-N-MC cells was used and cAMP production was measured via AlphaScreen (Perkin Elmer, Wellesley, MA, USA), as described previously ([…] et al., [2010]). This assay was also used to investigate the action of all derivatives at the AMY1(a) receptor and other experiments using Cos 7 cells. […] GraphPad Prism 5.00 or 6.00 (GraphPad Software Inc., San Diego, CA, USA) was used for data fitting. Concentration-response curves were fitted to a sigmoidal function with Hill slope constrained to unity to obtain pEC50 and maximum responses (Emax) values. Displacement curves were analysed to obtain pIC50 values. Schild plots were fitted by linear regression to obtain slope and intercepts. pEC50 and pIC50 values were compared with that of human αCGRP using Dunnett's test with either a normal or repeated measures one-way ANOVA, as appropriate.

[2] = molecular target: T2, CGRP receptor (Homo sapiens, UniProt O60894+Q16602); experiment: β-arrestin 2 translocation in CHO-K1 cells (PathHunter eXpress); format: cell-based; set-up: host or cells: CHO-K1 (PathHunter eXpress β-arrestin kit)
T2 sequence (Q16602 23-461): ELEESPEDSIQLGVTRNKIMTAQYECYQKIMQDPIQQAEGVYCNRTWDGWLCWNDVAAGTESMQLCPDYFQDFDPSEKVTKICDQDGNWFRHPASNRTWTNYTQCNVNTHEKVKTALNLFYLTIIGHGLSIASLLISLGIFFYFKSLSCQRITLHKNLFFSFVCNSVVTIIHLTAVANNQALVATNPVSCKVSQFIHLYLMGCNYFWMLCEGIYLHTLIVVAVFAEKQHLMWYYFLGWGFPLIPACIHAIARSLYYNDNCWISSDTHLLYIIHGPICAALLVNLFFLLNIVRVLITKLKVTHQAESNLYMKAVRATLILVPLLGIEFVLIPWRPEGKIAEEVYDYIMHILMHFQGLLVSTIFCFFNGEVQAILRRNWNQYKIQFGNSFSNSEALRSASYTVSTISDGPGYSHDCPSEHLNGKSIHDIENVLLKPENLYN
T2 sequence (O60894 27-148): as the sequence (O60894 27-148) above
Procedure: (§1) GraphPad Prism 5.00 or 6.00 (GraphPad Software Inc., San Diego, CA, USA) was used for data fitting. Concentration–response curves were fitted to a sigmoidal function with Hill slope constrained to unity to obtain pEC50 and maximum responses (Emax) values. Displacement curves were analysed to obtain pIC50 values. Schild plots were fitted by linear regression to obtain slope and intercepts. pEC50 and pIC50 values were compared with that of human αCGRP using Dunnett's test with either a normal or repeated measures one-way ANOVA, as appropriate.

[3] = molecular target: T2, CGRP receptor; experiment: Displacement of 125I-CGRP binding to SK-N-MC cell membranes; set-up: relative expression levels of the receptors (endogenous vs. overexpressed); endogenous in cells; host or cells: SK-N-MC cells (ECACC clone; ATCC clone for [Cys5]-CGRP); details: Binding (SK-N-MC) pKi CGRP analogue, 125I-CGRP displacement, SK-N-MC cell membranes; means ± SEM, n = 3–6; [Cys5] on a different batch of SK-N-MC cells
Procedure: as §1

[4] = molecular target: T2, CGRP receptor; experiment: cAMP production in SK-N-MC cells; format: cell-based; set-up: relative expression levels of the receptors (endogenous vs. overexpressed); endogenous in cells; host or cells: SK-N-MC cells (ECACC clone; ATCC clone for [Cys5]-CGRP); details: radioreceptor assay, approx. 10 min, means ± SEM, n = 3–6
Procedure: Production of cAMP in SK-N-MC cells for all analogues except [[…]]-hαCGRP was by a radioreceptor assay, as described previously (Poyner et al., [1998]). […] For [[…]]-hαCGRP, a different clone of SK-N-MC cells was used and cAMP production was measured via AlphaScreen (Perkin Elmer, Wellesley, MA, USA), as described previously ([…] et al., [2010]). This assay was also used to investigate the action of all derivatives at the AMY1(a) receptor and other experiments using Cos 7 cells. […] GraphPad Prism 5.00 or 6.00 (GraphPad Software Inc., San Diego, CA, USA) was used for data fitting. Concentration-response curves were fitted to a sigmoidal function with Hill slope constrained to unity to obtain pEC50 and maximum responses (Emax) values. Displacement curves were analysed to obtain pIC50 values. Schild plots were fitted by linear regression to obtain slope and intercepts. pEC50 and pIC50 values were compared with that of human αCGRP using Dunnett's test with either a normal or repeated measures one-way ANOVA, as appropriate.

[5] = molecular target: AMY_(1(a)) receptor (human HA-tagged CT (a) receptor with human myc-tagged RAMP1) (human) (UniProt O60894)
Chain of AMY_(1(a)) receptor (human HA-tagged CT (a) receptor with human myc-tagged RAMP1) (human) (O60894 whole entry, looked up): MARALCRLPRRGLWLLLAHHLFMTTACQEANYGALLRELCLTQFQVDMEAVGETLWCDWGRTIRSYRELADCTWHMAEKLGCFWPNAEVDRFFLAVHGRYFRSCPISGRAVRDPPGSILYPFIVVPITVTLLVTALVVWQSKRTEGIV

[6] = molecular target: T3, CGRP receptor (calcitonin receptor-like receptor in complex with receptor activity-modifying protein 1) (human (endogenous in SK-N-MC), UniProt Q16602 23-461; O60894 27-148); experiment: cell-based or functional assay
T3 sequence (Q16602 23-461, chain 1 of 2): as the sequence (Q16602 23-461) above
T3 sequence (O60894 27-148, chain 2 of 2): as the sequence (O60894 27-148) above

[7] = molecular target: T3, CGRP receptor (calcitonin receptor-like …); experiment: radioligand binding; displacement of ^125I-CGRP from SK-N-MC cell membranes by unlabelled peptides, microcentrifugation-based binding assay; [Cys^5]-CGRP and its control on another batch of SK-N-MC cells; details: one partner purified
[8] = 2 h stimulation, means ± SEM, n = 3

Molecule	AMY1(a) receptor-stimulated cAMP pEC50 CGRP analogue [1]	β-Arrestin (CHO-K1) pEC50 CGRP analogue [2, 8]	Ki [3]	cAMP (SK-N-MC) pEC50 CGRP analogue [4]	Emax (% CGRP), cAMP production in Cos 7 cells with the AMY (1(a)) receptor [5]	pEC50, cAMP production in Cos 7 cells with the AMY (1(a)) receptor [5]	Emax (% CGRP), cAMP production in SK-N-MC cells [6]	Emax (% CGRP), β-arrestin 2 translocation in CHO-K1 cells expressing the human CGRP receptor [6]	pEC50, cAMP production in SK-N-MC cells [6]	pEC50, β-arrestin 2 translocation in CHO-K1 cells expressing the human CGRP receptor [6]	pKi [7]	other results
CC(C)C[C@H](NC(=O)CNC(=O)[C@H](C)NC(=O)[C@H](CC(C)C)NC(=O)[C@H](CCCNC(=N)N)NC(=O)[C@H](Cc1c[nH]cn1)NC(=O)[C@@H](NC(=O)[C@@H](NC(=O)[C@@H]1CSSC[C@H](NC(=O)[C@H](C)N)C(=O)N[C@@H](CC(=O)O)C(=O)N[C@@H]([C@@H](C)O)C(=O)N[C@@H](C)C(=O)N[C@@H](CCCCN)C(=O)N1)C(C)C)[C@@H](C)O)C(=O)N[C@@H](CC(C)C)C(=O)N[C@@H](CO)C(=O)N[C@@H](CCCNC(=N)N)C(=O)N[C@@H](CO)C(=O)NCC(=O)NCC(=O)N[C@H](C(=O)N[C@H](C(=O)N[C@@H](CCCCN)C(=O)N[C@@H](CC(N)=O)C(=O)N[C@@H](CC(N)=O)C(=O)N[C@@H](Cc1ccccc1)C(=O)N[C@H](C(=O)N1CCC[C@H]1C(=O)N[C@H](C(=O)N[C@@H](CC(N)=O)C(=O)N[C@H](C(=O)NCC(=O)N[C@@H](CO)C(=O)N[C@@H](CCCCN)C(=O)N[C@@H](C)C(=O)N[C@@H](Cc1ccccc1)C(N)=O)C(C)C)[C@@H](C)O)C(C)C)C(C)C)C(C)C [[Lys^6]]	Undetectable	Undetectable	17.4 nM	Undetectable								
CC(C)C[C@H](NC(=O)CNC(=O)[C@H](C)NC(=O)[C@H](CC(C)C)NC(=O)[C@H](CCCNC(=N)N)NC(=O)[C@H](Cc1c[nH]cn1)NC(=O)[C@@H](NC(=O)[C@@H](NC(=O)[C@@H]1CSSC[C@H](NC(=O)[C@H](C)N)C(=O)N[C@@H](CC(=O)O)C(=O)N[C@@H]([C@@H](C)O)C(=O)N[C@@H](C)C(=O)N[C@@H](CC(=O)O)C(=O)N1)C(C)C)[C@@H](C)O)C(=O)N[C@@H](CC(C)C)C(=O)N[C@@H](CO)C(=O)N[C@@H](CCCNC(=N)N)C(=O)N[C@@H](CO)C(=O)NCC(=O)NCC(=O)N[C@H](C(=O)N[C@H](C(=O)N[C@@H](CCCCN)C(=O)N[C@@H](CC(N)=O)C(=O)N[C@@H](CC(N)=O)C(=O)N[C@@H](Cc1ccccc1)C(=O)N[C@H](C(=O)N1CCC[C@H]1C(=O)N[C@H](C(=O)N[C@@H](CC(N)=O)C(=O)N[C@H](C(=O)NCC(=O)N[C@@H](CO)C(=O)N[C@@H](CCCCN)C(=O)N[C@@H](C)C(=O)N[C@@H](Cc1ccccc1)C(N)=O)C(C)C)[C@@H](C)O)C(C)C)C(C)C)C(C)C [[Asp^6]]	Undetectable	Undetectable	31.6 nM	Undetectable								
CC(C)C[C@H](NC(=O)CNC(=O)[C@H](C)NC(=O)[C@H](CC(C)C)NC(=O)[C@H](CCCNC(=N)N)NC(=O)[C@H](Cc1c[nH]cn1)NC(=O)[C@@H](NC(=O)[C@@H](NC(=O)[C@@H]1CSSC[C@H](NC(=O)[C@H](C)N)C(=O)N[C@@H](CC(=O)O)C(=O)N[C@@H]([C@@H](C)O)C(=O)N[C@@H](C)C(=O)N[C@@H](CO)C(=O)N1)C(C)C)[C@@H](C)O)C(=O)N[C@@H](CC(C)C)C(=O)N[C@@H](CO)C(=O)N[C@@H](CCCNC(=N)N)C(=O)N[C@@H](CO)C(=O)NCC(=O)NCC(=O)N[C@H](C(=O)N[C@H](C(=O)N[C@@H](CCCCN)C(=O)N[C@@H](CC(N)=O)C(=O)N[C@@H](CC(N)=O)C(=O)N[C@@H](Cc1ccccc1)C(=O)N[C@H](C(=O)N1CCC[C@H]1C(=O)N[C@H](C(=O)N[C@@H](CC(N)=O)C(=O)N[C@H](C(=O)NCC(=O)N[C@@H](CO)C(=O)N[C@@H](CCCCN)C(=O)N[C@@H](C)C(=O)N[C@@H](Cc1ccccc1)C(N)=O)C(C)C)[C@@H](C)O)C(C)C)C(C)C)C(C)C [[Ser^6]]			0.759 nM									EC50 ([1]; AMY1(a) receptor-stimulated cAMP pEC50 CGRP analogue): 0.562 nM; AMY1(a) receptor-stimulated cAMP Emax (% CGRP) CGRP analogue [1]: 76 ± 19 % CGRP; β-Arrestin (CHO-K1) Emax (% CGRP) CGRP analogue [2, 8]: 57.3 ± 4.8 % CGRP; Emax ([2]; CHO-K1, CHO-K1 cells, compared with CGRP, read-out: reduction of Emax, β-arrestin 2 translocation): 40%; EC50 ([2]; β-Arrestin (CHO-K1) pEC50 CGRP analogue, 2 h stimulation, means ± SEM, n = 3): 8.51 nM; EC50 ([4]; cAMP (SK-N-MC) pEC50 CGRP analogue): 53.7 nM; cAMP (SK-N-MC) Emax (% CGRP) CGRP analogue [4]: 100 ± 10 % CGRP
B1					76 % CGRP	9.25	100 % CGRP	57.3 % CGRP	7.27	8.07	9.12	
B2					108 % CGRP	8.9	116 % CGRP	95 % CGRP	8.27	8.43	9.54	
